These results are taken from patent publication US10246449B2, “1,2,3 triazole-thiazole compounds, process for preparation and use thereof” (Council of Scientific & Industrial Research, priority 2015, dated 2019).

In the case of `CCCCc1cn(Cc2csc(-c3ccc(Cl)cc3)n2)nn1` [Compound 2, 4-((4-Butyl-1H-1,2,3-triazol-1-yl)methyl)-2-(4-chlorophenyl)thiazole], the melting point (commonly the temperature of the solid-liquid transition) was in the range of 98 to 99 °C.
As to `Clc1ccc(-c2nc(Cn3cc(C4CC4)nn3)cs2)cc1` [Compound 3, 2-(4-Chlorophenyl)-4-((4-cyclopropyl-1H-1,2,3-triazol-1-yl)methyl)thiazole], the melting point is 109 to 111 °C.
In the case of `OCc1cn(Cc2csc(-c3ccc(Cl)cc3)n2)nn1` [Compound 4, (1-((2-(4-Chlorophenyl)thiazol-4-yl)methyl)-1H-1,2,3-triazol-4-yl)methanol], the melting point was in the range of 152 to 154 °C.
As for `CCCCCc1cn(Cc2csc(-c3ccc(Cl)cc3)n2)nn1` [Compound 5, 2-(4-Chlorophenyl)-4-((4-pentyl-1H-1,2,3-triazol-1-yl)methyl)thiazole], the melting point lay in the range of 88 to 90 °C.
Next, `Clc1ccc(-c2nc(Cn3cc(COC4CCCCO4)nn3)cs2)cc1` (centres unmarked) [Compound 6, 2-(4-Chlorophenyl)-4-((4-(((tetrahydro-2H-pyran-2-yl)oxy)methyl)-1H-1,2,3-triazol-1-yl)methyl)thiazole]: 92 to 94 °C.
Turning to `CCOC(=O)c1cn(Cc2csc(-c3ccc(Cl)cc3)n2)nn1` [Compound 7, Ethyl 1-((2-(4-chlorophenyl)thiazol-4-yl)methyl)-1H-1,2,3-triazole-4-carboxylate], the melting point is 149 to 151 °C.
In the case of `OCCCCc1cn(Cc2csc(-c3ccc(Cl)cc3)n2)nn1` [Compound 8, 4-(1-((2-(4-Chlorophenyl)thiazol-4-yl)methyl)-1H-1,2,3-triazol-4-yl)butan-1-ol], the melting point was in the range of 157 to 159 °C.
Molecule `Clc1ccc(-c2nc(Cn3nncc3-c3ccccc3)cs2)cc1` [Compound 9, 2-(4-chlorophenyl)-4-((5-phenyl-1H-1,2,3-triazol-1-yl)methyl)thiazole] gave a melting point of 175 to 177 °C.
